How the values were obtained:
CFBE = assay: Cellular model: IL-6 content (ELISA) in lung epithelial cells treated with PAO1 supernatant; type: cell-based, human; conditions: PAO1 supernatant pre-incubated with compound 1h at 37°C, 6h incubation
Excerpt: (§1) These degradations are beneficial for P. aeruginosa pathogenesis by inhibiting antimicrobial peptide while impairing lung function of the host by promoting lung damage and inhibiting epithelial cell repair. In mice, intranasally instillated LasB induced significant inflammation, injury and death. […] Our compounds are therefore been tested in cellular models to define inhibitory effect of our series on LasB deleterious effect on human lung epithelial cell models (NCI-H292 and CFBE). Supernatants from PAO1 wild type and lasB mutant (PAO1ΔlasB) are pre-incubated with Example 1 at 10 times the final concentrations for 1h at 37°C. Then, supernatants are added to cell lines. After 6h incubation, cell culture supernatants are recovered, IL-6 and Trappin-2 contents are analysed by ELISA method. A Student t-Test is performed to assess the statistical significance between conditions (p < 0.05, *). NCI-H292 and CFBE cells express respectively Trappin-2 and IL-6. Whether treatment with culture supernatant from PAO1ΔlasB induces an overexpression of both immune factors, the treatment with PAO1 supernatant lead to strong reduction of IL-6 and Trappin-2 detected. LasB, hydrolyzing IL-6 and Trappin-2, hijacks the immune response against PA. […] By restoring immune response and secretion of IL-6 and Trappin-2, Example 1 and related LasB inhibitors may restore eradication of PA by the immune system.

NCI-H292 = assay: Cellular model: Trappin-2 content (ELISA) in lung epithelial cells treated with PAO1 supernatant; type: cell-based, human; conditions: PAO1 supernatant pre-incubated with compound 1h at 37°C, 6h incubation
Excerpt: as §1

LasB = molecular target: T1, LasB (Pseudomonas aeruginosa, UniProt P14756); assay: Elastin assay to determine % inhibition (Elastin Congo-Red, dialysed culture supernatant); type: biochemical, P. aeruginosa PAO1; conditions: read-out: Elastin hydrolysis % inhibition @ 50 / 25 µM inhibitor concentration
T1 construct: uses as source of enzyme dialysed supernatant from P. aeruginosa PAO1; endogenous in cells; host or cells: P. aeruginosa PAO1 culture supernatant, filtered and dialysed
Summary of the method: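 Enzyme source was dialysed PAO1 culture supernatant (50 mM Tris-HCl pH 7.4, 2.5 mM CaCl2), mixed with Elastin Congo-Red and 0.01% Triton X-100. Compound was routinely 50 to 1.56 µM, incubated overnight at 37 °C with shaking. Dye release at OD495 gave % inhibition relative to DMSO and no-enzyme controls.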

[1] = molecular target: T2, purified LasB protein from P. aeruginosa (Pseudomonas aeruginosa, UniProt P14756); assay: Fluorometric assay to determine Ki (Abz-Ala-Gly-Leu-Ala-p-Nitro-Benzyl-Amide substrate); type: biochemical
T2 construct: purchased Merck or Charles River Laboratories
Summary of the method: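 Purified P. aeruginosa LasB (10–140 ng/ml) with 250 µM Abz-Ala-Gly-Leu-Ala-p-nitrobenzylamide in 50 mM Tris-HCl pH 7.4, 2.5 mM CaCl2, 0.01% Triton X100, 37 °C; hydrolysis fluorescence (Ex 340/Em 415 nm) followed over 30 min, inhibitor 0.0016–200 µM. Ki = IC50/(1+[S]/Km), Km 214 µM.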

T2 sequence (P14756 198-498): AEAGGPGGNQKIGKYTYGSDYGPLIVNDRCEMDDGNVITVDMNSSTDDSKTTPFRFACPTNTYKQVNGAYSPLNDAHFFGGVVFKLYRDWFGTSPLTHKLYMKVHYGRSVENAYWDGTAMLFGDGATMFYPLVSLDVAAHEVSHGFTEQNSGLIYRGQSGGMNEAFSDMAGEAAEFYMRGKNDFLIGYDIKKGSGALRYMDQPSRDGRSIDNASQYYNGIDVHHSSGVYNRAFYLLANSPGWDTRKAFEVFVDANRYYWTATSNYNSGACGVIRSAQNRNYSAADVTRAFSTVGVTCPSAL
T1 sequence (P14756 198-498): as above

SMILES	level of IL-6 (CFBE)	level of Trappin-2 (NCI-H292)	inhibition at 25 µM (LasB)	Ki [1]
O=C(O)CC1(C(=O)NCc2nc(-c3ccccc3)cs2)Cc2ccccc2C1 [Example 1, 2-[2-[(4-phenylthiazol-2-yl)methylcarbamoyl]indan-2-yl]acetic acid]	restored in a dose response maneer level of both Trappin-2 and IL-6 similar to the control	restored in a dose response maneer level of both Trappin-2 and IL-6 similar to the control	> 75%	50 to 200 nM
CN(C)C1CCN(S(=O)(=O)c2cc(-c3csc(CNC(=O)C4(CC(=O)O)Cc5cc(F)c(F)cc5C4)n3)ccc2OCCCN2CCCC2)CC1 [Example 139, 2-[2-[[4-[3-[[4-(dimethylamino)-1-piperidyl]sulfonyl]-4-(3-pyrrolidin-1-ylpropoxy)phenyl]thiazol-2-yl]methylcarbamoyl]-5,6-difluoro-indan-2-yl]acetic acid]			10 to 60%	50 to 200 nM
C[N+]1(CCc2ccc(-c3csc(CNC(=O)C4(CC(=O)[O-])Cc5ccccc5C4)n3)cn2)CCOCC1 [Example 141, 2-[2-[[4-[6-[2-(4-methylmorpholin-4-ium-4-yl)ethyl]-3-pyridyl]thiazol-2-yl]methylcarbamoyl]indan-2-yl]acetate]			60 to 75%	50 to 200 nM
O=C(O)CC1(C(=O)NCc2nc(-c3ccc(OCc4ccncc4)nc3)cs2)Cc2ccccc2C1 [Example 142, 2-[2-[[4-[6-(4-pyridylmethoxy)-3-pyridyl]thiazol-2-yl]methylcarbamoyl]indan-2-yl]acetic acid]			> 75%	< 50 nM
C[n+]1ccc(COc2ccc(-c3csc(CNC(=O)C4(CC(=O)[O-])Cc5ccccc5C4)n3)cn2)cc1 [Example 143, 2-[2-[[4-[6-[(1-methylpyridin-1-ium-4-yl)methoxy]-3-pyridyl]thiazol-2-yl]methylcarbamoyl]indan-2-yl]acetate]			10 to 60%	50 to 200 nM
O=C(O)CC1(C(=O)NCc2nc(-c3ccccc3OC(F)(F)F)cs2)Cc2ccccc2C1 [Example 145, 2-[2-[[4-[2-(trifluoromethoxy)phenyl]thiazol-2-yl]methylcarbamoyl]indan-2-yl]acetic acid]			60 to 75%	50 to 200 nM
COc1ccccc1-c1csc(CNC(=O)C2(CC(=O)O)Cc3ccccc3C2)n1 [Example 146, 2-[2-[[4-(2-methoxyphenyl)thiazol-2-yl]methylcarbamoyl]indan-2-yl]acetic acid]			60 to 75%	50 to 200 nM
CCc1ccccc1-c1csc(CNC(=O)C2(CC(=O)O)Cc3ccccc3C2)n1 [Example 147, 2-[2-[[4-(2-ethylphenyl)thiazol-2-yl]methylcarbamoyl]indan-2-yl]acetic acid]			60 to 75%	50 to 200 nM
O=C(O)CC1(C(=O)NCc2nc(-c3ccccc3CO)cs2)Cc2ccccc2C1 [Example 148, 2-[2-[[4-[2-(hydroxymethyl)phenyl]thiazol-2-yl]methylcarbamoyl]indan-2-yl]acetic acid]			60 to 75%	50 to 200 nM
